Experimental data as given in ChEMBL document CHEMBL1122748, “Synthesis and evaluation of substituted 2-phenylcyclobutylamines as analogues of hallucinogenic phenethylamines: lack of LSD-like biological activity” (1984).

How the values were obtained:
Assay type in all cases: functional
Rattus norvegicus [1] = experiment: Compound was evaluated for mean % LSD correct responses at a dos e of 10 mg/kg in rats using drug discrimination assay
Rattus norvegicus [2] = experiment: Effective dose to cause hallucinogenic activity in rats using drug discrimination assay by intraperitoneal administration; conditions: ip
Rattus norvegicus [3] = experiment: Compound was evaluated for mean % LSD correct responses at a dos e of 15 mg/kg in rats using drug discrimination assay
Rattus norvegicus [4] = experiment: Compound was evaluated for mean % LSD correct responses at a dos e of 0.75 mg/kg in rats using drug discrimination assay

Compound	ED50 (Rattus norvegicus [2]) [mg/kg]	other results
COc1cc(C2CC[C@@H]2N)c(OC)cc1C (stereo partly drawn)	–	LSD (Rattus norvegicus [1]): 53%
CCN(CC)C(=O)[C@@H]1C=C2c3cccc4[nH]cc(c34)C[C@H]2N(C)C1 [LYSERGIDE]	0.0077	–
COc1cc(OC)c(C2CC[C@@H]2N)cc1OC (stereo partly drawn)	–	LSD (Rattus norvegicus [1]): 44%
COc1cc(C2CC2N)c(OC)cc1C.Cl (stereo not drawn)	20	–
COc1cc(OC)c(C2CC[C@H]2N)cc1OC (stereo partly drawn)	–	LSD (Rattus norvegicus [3]): 28%
COc1cc(C2CC2N)c(OC)cc1C (stereo not drawn)	0.163	LSD (Rattus norvegicus [4]): 93%
CCN(CC)C(=O)[C@@H]1C=C2c3cccc4[nH]cc(c34)C[C@H]2N(C)C1.O=C(O)C(O)C(O)C(=O)O	0.08	–
